≈ marks a conversion by molar mass, not a printed value. Bounds are passed on as bounds.

For experiment [1], the system named is vancomycin resistant Enterococcus faecalis (VRE) ATCC#51575. Put plainly: organism not typed. It is filed as cell-based. The protocol: (§1) Antibiotic compositions of the invention were tested for antimicrobial activity against methicillin resistant Staphylococcus aureus (MRSA) ATCC#33591 and vancomycin resistant Enterococcus faecalis (VRE) ATCC#51575. Pathogen cultures were grown in tryptic soya broth (TSB) with 5 g/L NaCl (TSB+) overnight (˜18 hrs) at 37° C. The cultures were removed from the incubator and refrigerated at least 3 hours to stop further culture growth. Determined aliquot ratios of culture to broth to obtain approximately 2.5×10^5 CFU/ml., for which accurate counts were measured by serial dilution onto Tryptic Soy Agar with 5 g/L NaCl (TSA+) plates. Two fold dilution series' of […] were prepared for MRSA and VRE, respectively. All components except thiazolyl blue tetrazolium bromide (MTT) were added to the wells prior to an initial overnight incubation at 37° C. MTT was added to each well, 29 μl or […], for MRSA or VRE plates, respectively, followed by 1 hour incubation at 37° C. Vancomycin and/or Zyvoxam were included as reference compounds with vancomycin prepared in the same way as the test compounds. Zyvoxam was supplied as a 2 mg/ml solution. Minimum inhibitory concentration (MIC) endpoints were read as the lowest concentration showing no visible growth.

Experiment [2] concerns methicillin resistant Staphylococcus aureus (MRSA) ATCC#33591. Put plainly: microbe, parasite or virus in culture. The experiment is classed as cell-based. The protocol: as §1
Where [3] appears, read: VRE, lowest concentration showing no visible growth, overnight incubation at 37° C.
Setting [4] is: MRSA, lowest concentration showing no visible growth, overnight incubation at 37° C.

On to Nisin[1-12] polypeptide fragment, for which the “highest concentration at which VRE was not inhibited” value in experiment [1] (VRE, did not inhibit at as high as the stated concentration) is greater than 40 µg/mL. Moreover, in experiment [2] (MRSA, did not inhibit at as high as the stated concentration), the “highest concentration at which MRSA was not inhibited” value is greater than 10 µg/mL.

With nisin, the “minimum inhibitory concentration against VRE” value in experiment [1] (setting [3]) was in the range of 5 to 10 µg/mL. The “minimum inhibitory concentration against MRSA” value in experiment [2] (setting [4]) lay within 0.3 to 0.6 µg/mL.

Regarding `CC(=O)NC[C@H]1CN(c2ccc(N3CCOCC3)c(F)c2)C(=O)O1` [zyvoxam], the “minimum inhibitory concentration against VRE” value in experiment [1] (setting [3]) came out at 1.2 µg/mL (≈ 3.56 µM). Besides, the “minimum inhibitory concentration against MRSA” value in experiment [2] (setting [4]) came to 0.3 µg/mL (≈ 0.889 µM).

With `C=C1NC(=O)[C@H]([C@@H](C)CC)NC(=O)[C@H](NC(=O)C(=CC)NC(=O)[C@@H](N)[C@@H](C)CC)CSC[C@@H](C(=O)N[C@H]2C(=O)N3CCC[C@H]3C(=O)NCC(=O)N[C@H](C(=O)N[C@@H](CCCCN)C(=O)NCCCCCCNC(=O)[C@H]3NC(=O)[C@H]4NC(=O)[C@H](NC(=O)[C@@H]5NC(=O)[C@H](CC(N)=O)NC(=O)[C@H](NC(=O)[C@@H](CC(C)C)NC)[C@H](O)c6ccc(c(Cl)c6)Oc6cc5cc(c6O[C@@H]5O[C@H](CO)[C@@H](O)[C@H](O)[C@H]5O[C@H]5C[C@](C)(N)[C@H](O)[C@H](C)O5)Oc5ccc(cc5Cl)[C@H]4O)c4ccc(O)c(c4)-c4c(O)cc(O)cc43)CSC2C)NC(=O)[C@H](CC(C)C)NC1=O` (stereo partly shown) [Example 2, nisin(1-12)-1,6-diaminohexane-vancomycin], the “minimum inhibitory concentration against VRE” value in experiment [1] (vancomycin resistant (VRE) ATCC#51575, 18 h) was determined as 20 µg/mL (≈ 7.46 µM). Moreover, the “minimum inhibitory concentration against MRSA” value in experiment [2] (methicillin resistant ATCC#33591, 18 h) came to 0.04 µg/mL (≈ 0.0149 µM).

With `CN[C@H](CC(C)C)C(=O)N[C@H]1C(=O)N[C@@H](CC(N)=O)C(=O)N[C@H]2C(=O)N[C@H]3C(=O)N[C@H](C(=O)N[C@H](C(=O)O)c4cc(O)cc(O)c4-c4cc3ccc4O)[C@H](O)c3ccc(c(Cl)c3)Oc3cc2cc(c3O[C@@H]2O[C@H](CO)[C@@H](O)[C@H](O)[C@H]2O[C@H]2C[C@](C)(N)[C@H](O)[C@H](C)O2)Oc2ccc(cc2Cl)[C@H]1O` [vancomycin], the MIC is 500 µg/mL (≈ 345 µM) in experiment [1] (read-out: minimum inhibitory concentration against VRE) and 1.2 µg/mL (≈ 0.828 µM) in experiment [2] (Staphylococcus aureus, read-out: minimum inhibitory concentration against MRSA).

For the origin of these results see patent US20100041613A1, “NOVEL ANTIBIOTIC COMPOSITIONS” (priority 2006, published 2010).
